The values that follow come from US8188148B2, “Substituted 1,3-diphenylpropane derivatives, preparations and uses thereof” (Genfit, priority 2006, dated 2012).

In experiment [1] the test system is db/db mouse. The experiment in a line: In vivo evaluation on db/db mouse: body weight, glycemia, insulinemia, plasma lipids. The following applies: 50 mpk per os, 28 days. On the procedure: The effect of the compounds according to the invention is evaluated in vivo on the db/db mouse by measuring the body weight evolution, the glucose levels, the insulin levels, the plasma total cholesterol and triglyceride levels, and by analyzing the distribution of cholesterol in different plasma lipoprotein fractions, after 28 days of a per os treatment with compounds according to the invention.
Female db/db mice were kept on a 12 hour/12 hour light/dark cycle at a constant temperature of 20±3° C. After a one week acclimatization period, the mice were weighed and divided into groups of 8 animals selected so as to render uniform the distribution of their body weights and their plasma lipid rates, determined before the experiment. The tested compounds were suspended in carboxymethylcellulose (Sigma C4888) and administered intra-gastric tube feeding once a day for 28 days at the chosen dose. The animals had free access to food and water (standard diet). Taking of food and weight gain are recorded throughout the experiment. At the end of the experiment, the animals were anesthetized after a 4 hour fast, a blood sample was taken using (EDTA) anticoagulant, then the mice were weighed and euthanized. The plasma was separated by centrifugation at 3000 rotations/minute for 20 minutes. The samples were kept at +4° C. The hepatic tissue and skeletal muscle tissue samples were taken and frozen immediately in liquid nitrogen then conserved at −80° C. for later analysis.
Murine plasma glucose is measured out according to an enzyme-colorimetric method using a Glucose RTU kit (Biomérieux). Glucose is transformed into gluconic acid under the action of glucose oxidase; the reaction releases hydrogen peroxide. Hydrogen peroxide is measured according to the Trinder reaction which, under the action of a peroxidase and in the presence of phenol and amino-4-antipyrine, produces water and a colored product, quinoneimine. The color intensity, due to the quinoneimine, is proportional to the amount of glucose present in the sample.
Murine insulin is measured using ELISA method (using the INSKR020 kit from provider Crystal chem.). A microplate is coated with a mouse anti-insulin antibody. Then, the serum to be assayed for insulin is placed onto the plate. A guinea pig anti-insulin antibody is used to recognize the complex formed by the mouse insulin and the anti-insulin monoclonal antibody. Finally an anti-guinea pig antibody labeled with peroxidase is added and bind to the guinea pig anti-insulin antibody. The colorimetric reaction is performed by adding an OPD (ortho phenyl diamine) enzyme substrate. The intensity of the color is proportional to the amount of insulin present in the sample.
Plasma lipid concentrations (total cholesterol and triglycerides) are measured by enzymatic assays (bioMérieux-Lyon-France) according to the provider's recommendations.
The different lipid fractions (VLDL, LDL, HDL) in the plasma were separated using gel-filtration chromatography. Cholesterol concentrations were then measured for each fraction by enzymatic assays (bioMérieux-Lyon-France) according to the provider's recommendations.

In experiment [2] the test system is PPARs target genes (PDK4, UCP2). The experiment in a line: Hepatic and skeletal muscle gene expression by quantitative RT-PCR in db/db mouse. Format: in vivo. The conditions noted are these: 50 mpk, 28 days. On the procedure: The effectiveness of the compounds according to the invention is also evaluated by measuring, in the hepatic and muscular (skeletal) tissues, the expression of genes involved in lipid and/or glucid metabolism and in energy dissipation. Each level of gene expression is normalized regarding the expression level of the reference gene 36B4 in the hepatic tissue, or regarding the expression level of the reference gene 18S in the gastrocnemius skeletal muscle. The induction factor, i.e. the ratio between the relative signal (induced by the compound according to the invention) and the average of the relative values obtained with the control group, is then calculated. The higher the induction factor is, the more the greater the compound promotes gene expression. The final result is represented as the average of the induction values obtained with each experimental group. • FIG. 4-8: Expression of PDK4 in the hepatic tissue of the db/db mouse, after 28 days of treatment with compound 1 and compound 3, administered at 50 mpk • FIG. 4-9: Expression of UCP2 (uncoupling protein 2) in the skeletal muscle tissue of the db/db mouse, after 28 days of treatment with compound 1 and compound 3, administered at 50 mpk
Total RNA was extracted from liver fragments by using a NucleoSpin® 96 RNA kit (Macherey Nagel, Hoerdt, France) according to the manufacturer's instructions.
Total RNA was extracted from gastrocnemius skeletal muscle fragments by using a RNeasy® Fibrous Tissue kit (Qiagen) according to the manufacturer's instructions.
1 μg of total RNA (quantified by spectrophotometry) was then reverse-transcripted into complementary DNA by means of a 1 hour reaction at 37° C. in a total volume of 20 μl containing a 1× buffer (Sigma), 1.5 mM of DTT, 0.18 mM of dNTPs (Promega), 200 ng of pdN6 (Amersham), 30 U of RNase inhibitor (Sigma), and 1 μl of MMLV-RT (Sigma).
The PCR quantitative experiments were carried out using the MyiQ Single-Color Real-Time PCR Detection System (Biorad, Marnes-la-Coquette, France) and were performed using the iQ SYBR Green Supermix kit according to the provider's recommendations, in 96-well plates in 5 μl of a diluted reverse-transcription solution at a hybridization temperature of 55° C. The specific primer pairs of the genes being studied were used:
The amount of fluorescence emitted is directly proportional to the amount of complementary DNA present at the beginning of the reaction and amplified during the PCR. For each target studied, a range of solutions is performed with successive dilutions of mixtures of a few microliters of different reverse-transcription solutions. The relative levels of expression of each target are thus determined by using efficiency curves obtained with the points relative to the range of PCR solutions. […]

Experiment [3] deals with THP-1 human monocytes. The experiment in a line: Secretion of MCP1 by THP-1 monocytes stimulated with PMA. Format: cell-based. The following applies: THP-1 cells, 1 μM compound, 5 ng/ml PMA, 24 hours, vs DMSO. The protocol: The anti-inflammatory effects of the compound according to the invention is evaluated by measuring the secretion of MCP1 (Monocyte chemotactic protein-1) by THP1 monocytes treated for 24 hours with the compounds according to the invention and stimulated simultaneously with PMA (Phorbol 12-myristate 13-acetate, which promotes an inflammatory response in cells and their differentiation into macrophages).
The anti-inflammatory effects of the compounds according to the invention were evaluated by measuring the secretion of MCP1 (Monocyte chemotactic protein-1) by monocytes treated for 24 hours with compounds according to the invention and stimulated simultaneously with PMA (Phorbol 12-myristate 13-acetate, which promotes an inflammatory response in cells and their differentiation into macrophages). […]
The treatment medium is recovered and the MCP1 concentration is measured using the ELISA kit <<Human MCP-1 ELISA Set>> (BD OptEIA; 555179) in accordance with the manufacturer's recommendation.
MCP1 is laid on a plate and is recognized by an anti-MCP1 specific antibody. […] The coloration resulting from enzymatic activity is proportional to the quantity of fixed MCP1 and can be measured by a spectrophotometry method. A range is performed from a point representative of a known concentration and from which the MCP1 concentration of each sample is calculated. […]

For `Cc1cc(CCC(=O)c2ccc(Br)cc2)cc(C)c1OC(C)(C)C(=O)O` [Compound 3, 2-[2,6-dimethyl-4-[3-[4-bromophenyl]-3-oxo-propyl]phenoxy]-2-methylpropanoic acid], in experiment [1], the “HDL-cholesterol fraction (distribution of cholesterol in plasma lipoprotein fractions)” value is “significant increase”. In addition, in experiment [1] (vs control), the “plasma free fatty acids” value is on record as “very significantly decreased”, the plasma triglycerides entry is listed as “very significantly decreased” and the total plasma cholesterol result was “significantly increased”. Moreover, the “expression of the gene coding for UCP2 in the skeletal muscle” value in experiment [2] (gastrocnemius skeletal muscle) is “reduction”. Further, in experiment [2] (hepatic tissue), the “hepatic expression of the gene coding for PDK4” value is reported as “significant increase”. For the same compound, in experiment [3], the “MCP1 secreted by monocytes” value is given as “significant reduction”.
